Measured values from ChEMBL document CHEMBL3886997, “Biaryl- or heterocyclic biaryl-substituted cyclohexene derivative compounds as CETP inhibitors” (2016).

Molecular target: T1, Cholesteryl ester transfer protein (Homo sapiens, UniProt P11597)
T1 sequence (P11597 whole entry): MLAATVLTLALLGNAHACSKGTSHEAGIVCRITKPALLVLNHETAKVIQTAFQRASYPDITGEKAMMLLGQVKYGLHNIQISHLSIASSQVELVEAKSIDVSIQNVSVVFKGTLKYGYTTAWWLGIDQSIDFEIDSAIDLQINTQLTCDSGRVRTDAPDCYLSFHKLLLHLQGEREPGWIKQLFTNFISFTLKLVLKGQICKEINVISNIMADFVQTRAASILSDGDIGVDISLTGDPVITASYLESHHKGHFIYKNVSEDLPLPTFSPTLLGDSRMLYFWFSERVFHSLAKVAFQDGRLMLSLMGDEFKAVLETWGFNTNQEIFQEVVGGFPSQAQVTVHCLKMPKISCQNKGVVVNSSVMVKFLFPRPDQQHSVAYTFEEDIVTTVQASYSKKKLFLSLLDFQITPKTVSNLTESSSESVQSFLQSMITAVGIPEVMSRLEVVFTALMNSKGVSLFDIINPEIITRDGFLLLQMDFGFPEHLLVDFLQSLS
Assay: Cholesteryl Ester Transfer Assay: As a protein source for cholesteryl ester transfer, plasma from healthy persons was used, and as a cholesteryl ester receptor, LDL from healthy persons was used. Samples were treated with each test compound to final concentrations of 16, 80, 400, 2000 and 10000 nM and analyzed in duplicate. For the cholesteryl ester transfer test, 20 μl of plasma, 50 μl of LDL (0.25 mg/ml) and 50 μl of rHDL-agarose (0.25 mg/ml) were added, and a solution containing a test compound was added, followed by reaction at 37° C. Then, centrifugation was performed at 4° C. for 3 minutes to stop the reaction, and 150 μl of the supernatant was taken and transferred to a 96-well plate for radioactivity measurement, and the radioactivity of the plate was measured with a beta-ray detector.
Type: cell-free

SMILES	IC50 [nM]
COc1cc(C(F)(F)F)c(-c2ccc(C(=O)O)cc2Cl)cc1C1=C(CN2C(=O)O[C@H](c3cc(C(F)(F)F)cc(C(F)(F)F)c3)[C@@H]2C)CC(C)(C)CC1	12.3
COc1cc(C(F)(F)F)c(-c2ccc(C(=O)O)cc2F)cc1C1=C(CN2C(=O)O[C@H](c3cc(C(F)(F)F)cc(C(F)(F)F)c3)[C@@H]2C)CC(C)(C)CC1	9.1
